Source: patent publication US9686982B2, “Treatment of potatoes and root vegetables during storage” (AMVAC CHEMICAL CORPORATION, priority 2013, dated 2017)

Key:
[1] = system: dry rot (Fusarium sambucinum); experiment: Disease defects in commercial storage in Canada (Storage Bin 3); format: in vivo
Experimental: (§1) One group of sprouted, diseased tubers (Storage Bin 3) were treated with 3-decen-2-one (as SmartBlock®) at the rate of 115 ppm using a hot fogging method. Another group of tubers was left untreated as a control.

Potato variety FL 2053 = experiment: Sprout control in commercial storage in Canada (Storage Bin 3); format: in vivo; conditions: 115 ppm hot fogging, sprouted diseased tubers, FIG. 4
Experimental: as §1

tubers (cv Alturas) = experiment: Tuber firmness measured with TA-XT-2 texture analyzer; format: in vivo, potato; conditions: 115 ppm; for Tuber firmness (N) Average / Tuber firmness (N) Rep 1 / Tuber firmness (N) Rep 2 / Tuber firmness (N) Rep 3 / Tuber firmness (N) Rep 4: stored at 8° C.; for Tuber firmness (N) Rep 1 / Tuber firmness (N) Rep 2 / Tuber firmness (N) Rep 3 / Tuber firmness (N) Rep 4: mean of 6 tubers
Experimental: The source of tubers for this study was Telford Farms in Paul, Id. The storage unit temperature set point was 48.5° F. (9° C.). The tuber pulp temperatures ranged from 49 to 53.6° F. (9 to 12° C.) depending upon their location in the pile. Untreated tubers (cv Alturas) were selected from storage on Jul. 2, 2013 (prior to SmartBlock® application) to serve as untreated controls. About 200 lbs (91 kg) of these were distributed into 4 coolers with cold packs and transported to the Fed Ex office in Twin Falls, Id. at 1:45 pm where they remained in the air conditioned office until 6:23 pm when they left the facility. Untreated tubers to arrived in Pullman at 11:45 am on July 3.
SmartBlock® was applied at a rate of 4.2 fluid oz ton^−1 (136 mL MT^−1) to tubers remaining in the Telford Farms storage on July 2. Ventilation was suspended for an estimated 12 to 18 hrs. post treatment. A shipment of the treated tubers was packed as described above and delivered to Fed Ex in Twin Falls for shipment on July 3. The shipment arrived in Pullman on July 5 at 11:30 am.
Tubers were sorted into weight categories immediately upon arrival in Pullman, working at room temperature (˜25° C.) and in dim light (0.16-1.34 μE sec^−1 m^−2). Two experimental groups were created from the untreated (control) tubers; those with one or more sprouts ≧0.5 cm and those with no significant (>2 mm) sprouts. Sorting of tubers and their assignment to treatment groups for the various experiments was accomplished within 1.5 hr. and subsequently all tubers were placed in dark, walk-in storage at 8° C. with 85 to 90% RH. Humidity was maintained through the use of a household room humidifier, water on the concrete floor, and damp burlap placed on the empty shelves.
Tubers for firmness measurements were sorted by treatment and blocked for size. Each treatment group (containing at least 24 tubers) was stored in a plastic tote in the walk-in cold room at 8° C. Damp burlap was placed atop the tote so as not to contact the tubers directly. Burlap was re-wetted every two days. At 6, 13, 20, and 27 days after treatment (DAT), six tubers from each rep of each treatment (3-decen-2-one-treated and non-treated not sprouted) were selected and gently rinsed under cold running water to remove surface soil. The tubers were placed in plastic tubs and covered with damp paper towels for transport to the testing facility.
A TA-XT-2 texture analyzer (Stable Microsystems) was used to test tubers for firmness. A section of peel was removed from the midsection on opposite sides of the tuber. An 8-mm probe was lowered into the tuber tissue within this peeled area to a distance of 5 mm at a speed of 1 mm s^−1. Firmness was recorded as the N (m kg s−1) required to achieve the specified penetration. The two readings per tuber were averaged. Analysis of variance was performed on the data set.

[2] = Dec. 10, 2013, final grading after 115 ppm thermal fog

CCCCCCC=CC(C)=O [3-decen-2-one]
symptoms of dry rot compared to untreated controls ([1]; 115 ppm hot fogging, sprouted diseased tubers, FIG. 4): decreased or eliminated symptoms of dry rot | % Total Defects ([1]; Dec. 10, 2013, bin unloaded after 115 ppm thermal fog on Nov. 13, 2013 (14.30 before treatment), variety FL 2053): 4.23% | moistness of tubers [1, 2]: tubers were not moist and mold | mold development [1, 2]: development had been arrested. | Change (of % total defects) ([1]; Dec. 10, 2013 versus Nov. 13, 2013 before treatment, 115 ppm thermal fog): -70.4 | sprouting compared to untreated controls (Potato variety FL 2053): reduced/prevented sprouting | % Increase (tuber firmness vs untreated) (tubers (cv Alturas); 6 days after treatment): 4.09% | Tuber firmness (N) Average (tubers (cv Alturas); 6 days after treatment): 75.38 N | Tuber firmness (N) Rep 1 (tubers (cv Alturas); 6 days after treatment): 67.84 N | Tuber firmness (N) Rep 2 (tubers (cv Alturas); 6 days after treatment): 79.18 N | Tuber firmness (N) Rep 3 (tubers (cv Alturas); 6 days after treatment): 75.64 N | Tuber firmness (N) Rep 4 (tubers (cv Alturas); 6 days after treatment): 78.85 N | % Increase (tuber firmness vs untreated) (tubers (cv Alturas); 13 days after treatment): 2.80% | Tuber firmness (N) Average (tubers (cv Alturas); 13 days after treatment): 73.45 N | Tuber firmness (N) Rep 1 (tubers (cv Alturas); 13 days after treatment): 73.22 N | Tuber firmness (N) Rep 2 (tubers (cv Alturas); 13 days after treatment): 67.34 N | Tuber firmness (N) Rep 3 (tubers (cv Alturas); 13 days after treatment): 73.98 N | Tuber firmness (N) Rep 4 (tubers (cv Alturas); 13 days after treatment): 79.26 N | % Increase (tuber firmness vs untreated) (tubers (cv Alturas); 20 days after treatment): 3.28% | Tuber firmness (N) Average (tubers (cv Alturas); 20 days after treatment): 74.90 N | Tuber firmness (N) Rep 1 (tubers (cv Alturas); 20 days after treatment): 74.51 N | Tuber firmness (N) Rep 2 (tubers (cv Alturas); 20 days after treatment): 74.63 N | Tuber firmness (N) Rep 3 (tubers (cv Alturas); 20 days after treatment): 72.81 N | Tuber firmness (N) Rep 4 (tubers (cv Alturas); 20 days after treatment): 77.64 N
